Results taken from patent publication US6987103B2, “Treatment of chronic myelogenous leukmia, resistant or intolerant to ST1571, involving homoharringtonine alone or combined with other agents” (Stragen Pharma S.A., priority 2001, dated 2006).

Legend:
[1] = system: chronic phase of Philadelphia positive chronic myelogenous leukemia; assay: Case of patient #15 successively resistant to five drugs including STI571, treated by homoharringtonine; assay type: in vivo, human
Procedure: After a debulking treatment with hydroxyurea, a combination of interferon alpha (5 MU/m^2/day) and low-dose cytarabine was administered according to a standard regimen (subcutaneous mode of administration, 15 mg/m^2/day, daily, permanently). Then, to maintain hematologic response at the initial level, cytarabine regimen was increased to intermediate dose (200 mg/m^2/day). […] Finally, a treatment based on homoharringtonine alone was initiated. At the time of initiation of homoharringtonine treatment, WBC count was 31,000/μL: 2.5 mg/m^2/day, 14 days.

[2] = system: accelerated phase chronic myelogenous leukemia; conditions: human, in vivo
Procedure: Description. […] The patient was resistant to interferon alpha, BCNU, HU at the time of initiation of induction with homoharringtonine (2.5 mg/m^2/day, 15 days). After white blood cell and platelet counts recovery, ten further 7-day cycles of homoharringtonine combined with cytarabine (Ara-C) 10 mg (flat dose) daily, were administered. An average of 7 days of daily Ara-C per 28-day cycle was used (see treatment plan of FIG. 1).

[3] = in vivo; cited from earlier work
K562-s = assay: MTS cell proliferation assay, median effect combination analysis with STI571; assay type: cell-based, human; conditions: STI571:HHT = 27.3:1
From the text: (§1) The combination ratios are selected, where possible, such that both drugs are in a range relevant to their achievable serum concentrations. STI571-sensitive and resistant cells are exposed to doubling dilutions of homoharringtonine over a wide range (Table 1). […] The effects of homoharringtonine treatments are plotted and analyzed to produce computed estimations of the relative responses to either homoharringtonine alone or in combination. In this way it is possible to detect synergistic, additive or antagonistic effects. Duplicate or triplicate independent experiments are set up for each cell line/drug combination. In each case the analysis generates plots of CI (Combination Index) versus effect. […] These values are most relevant at high effect levels, as this is the desired physiological level of effect. Subsequently the CI curves can be represented as the average CI values at effects 0.5, 0.75 and 0.9 (IC50, IC75 and IC90 respectively). Cell proliferation is monitored with the CellTiter 96® AQucous One Solution Cell Proliferation Assay (Promega, UK). […] Proliferation is assessed on aliquots taken daily from days 1 to 4 in order to establish the most representative time-point. Replicate experiments are thereafter set up by plating the cells directly into 96-well plates and staining with MTS on day 3. A minimum of 95% viability as assessed by Trypan blue staining is required for the initiation of any experiment. […] Blank wells contained 100 μL RF10. All samples are plated in quadruplicate. […] On day 3, 20 μL of MTS reagent is added to each well, and the plate is re-incubated for a further 3–4 hours for stain development. At the end of this period, the plates are gently agitated and the absorbance of each well at 490 nm is recorded on an automatic microplate reader (MRX, Dynatech, Billingshurst, UK). Averaged blank values (no cells, no drug) are subtracted from sample values, and these corrected A490 values are calculated as percentages of the control cultures grown in the absence of drug. Error bars indicate the range defined in duplicate experiments, and significant differences considered as those which fell outside the region of overlap in the ranges of the means. Such an approach is supported by the non-parametric Mann-Whitney U test.

K562-r = assay: as above; assay type: cell-based, human; conditions: K562-r (STI571-resistant); STI571:HHT = 27.3:1
From the text: as §1

LAMA84-r = assay: as above; assay type: cell-based, human; conditions: LAMA84-r (STI571-resistant); STI571:HHT = 27.3:1
From the text: as §1

LAMA84-s = assay: as above; assay type: cell-based, human; conditions: STI571:HHT = 27.3:1
From the text: as §1

[4] = system: Chronic myelogenous leukemia (CML); conditions: in vivo; cited from earlier work

COC(=O)[C@H](CCSC)NC(=O)c1ccc(NC[C@@H](N)CS)cc1-c1ccccc1 [farnesyl transferase inhibitor]
peripheral blood response ([1]; patient #15, after first relapse under interferon alpha): transient peripheral blood response

COC(=O)C[C@](O)(CCCC(C)(C)O)C(=O)O[C@@H]1C(OC)=C[C@]23CCCN2CCc2cc4c(cc2[C@H]13)OCO4 [homoharringtonine]
adverse events attributable to the agent [2]: no non-hematologic adverse events attributable to homoharringtonine | WBC count ([1]; patient #15, day 17, HHT 2.5 mg/m^2/day, 14 days, 31,000/μL at initiation): 2,400 /μL | Drug concentration in serum [3]: 36.6 nM | Average CI (Combination index) at FA values of 0.5, 0.75 and 0.9 (K562-s): 1.1 | Average CI (Combination index) at FA values of 0.5, 0.75 and 0.9 (K562-r): 0.6 | Average CI (Combination index) at FA values of 0.5, 0.75 and 0.9 (LAMA84-r): 0.6 | Average CI (Combination index) at FA values of 0.5, 0.75 and 0.9 (LAMA84-s): 1.2

Nc1ccn([C@@H]2O[C@H](CO)[C@@H](O)[C@@H]2O)c(=O)n1 [cytarabine]
adverse events attributable to the agent [2]: Mouth ulceration and alveolar hemorrhage

interferon alpha
median survival [4]: about 7 years
